# Tested on: peripheral blood mononuclear cells (PBMCs)
# Assay: XF substrate oxidation stress test (Seahorse XFp, oxygen consumption rate)
# Assay type: cell-based, human
# Details: for basal respiration after blocking / maximal respiration after blocking: PBMCs of patients with COVID-19, BPTES 3 μM, etomoxir 4 μM, UK5099 2 μM
# Method: Blood samples were obtained from the study participants. PBMCs were separated and plated on XFp eight-well polystyrene plates designed for the Seahorse XFp analyzer (Agilent Technologies, Santa Clara, Calif.) within 2 h. The Seahorse XFp analyzer (Agilent Technologies) was used to measure basal, ATP-linked, and maximal oxygen consumption rate (OCR); reserve capacity; and extracellular acidification rate (ECAR).
# OCR, a measurement of mitochondrial respiration, and ECAR, which correlates to the number of protons released from the cell with potential contribution from glycolysis and the Krebs cycle, were measured in the presence of specific mitochondrial activators and inhibitors. Oligomycin (ATP synthase blocker) was used to measure ATP turnover and to determine proton leak; the mitochondrial uncoupler carbonyl cyanide 4-[trifluoromethoxy] phenylhydrazone (FCCP) was used to measure maximum respiratory function (maximal OCR).
# Reserve capacity was calculated as maximal OCR minus the basal respiration.
# For a measurement of basal respiration, three measurements were taken before injecting ATP synthase inhibitor oligomycin at 0.75 μM (final concentration). FCCP was then injected at 0.75 μM. Finally, a mixture of rotenone and antimycin A (1 μM) was injected. Mitochondrial basal respiration, proton leak, reserve capacity, and maximal respiration were measured after correcting for nonmitochondrial respiration.
# OCR and ECAR rates were normalized to cell count for PBMCs.
compound,measurement,setting,value
N#C/C(=C\c1cn(-c2ccccc2)c2ccccc12)C(=O)O [UK5099],maximal respiration after blocking the glucose pathway,"PBMCs of healthy controls (HC), before blocking=37±25",34±5
same,basal respiration after blocking the glucose pathway,"PBMCs of healthy controls (HC), before blocking=80±33",52±28
same,basal respiration after blocking,,128±5
same,maximal respiration after blocking,,254±24
same,basal respiration after blocking the glucose pathway,"PBMCs of patients with chest infection, before blocking=200±35",195±33
same,maximal respiration after blocking the glucose pathway,"PBMCs of patients with chest infection, before blocking=589±16",558±19
CCOC(=O)[C@@]1(CCCCCCOc2ccc(Cl)cc2)CO1 [etomoxir],basal respiration after blocking,,128±2
same,maximal respiration after blocking,,255±16
